What all share (assay): Test 1A glasshouse assay, post-emergence herbicidal activity
What all share (type): in vivo

Test [1] concerns Alopecurus myosuroides (ALOMY). The note with it: application rate 250 g/ha, 13 days after application, visual (100%=total damage; 0%=no damage); for pest or weed control at 250 g/ha: Alopecurus myosuroides, 312 h, read-out: Post-emergence Herbicidal Activity (% Phytotoxicity) ALOMY. In outline: (§1)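 Pots sown in standard soil; plants grown 8 days in glasshouse (24/16 °C day/night, 14 h light, 65% humidity), then sprayed with compound formulated in acetone/water (50:50) with 0.5% Tween 20. Regrown under same conditions, watered twice daily; visual % phytotoxicity scored 13 days after application (0 = none, 100 = total damage).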

Another test has as its system Lolium perenne (LOLPE). The note with it: application rate 250 g/ha, 13 days after application, visual (100%=total damage; 0%=no damage); for pest or weed control at 250 g/ha: Lolium perenne, 312 h, read-out: Post-emergence Herbicidal Activity (% Phytotoxicity) LOLPE. In outline:
as §1

Test [2] relates to Echinochloa crus-galli (ECHCG). The note with it: application rate 250 g/ha, 13 days after application, visual (100%=total damage; 0%=no damage); for pest or weed control at 250 g/ha: Echinochloa crus-galli, 312 h, read-out: Post-emergence Herbicidal Activity (% Phytotoxicity) ECHCG. In outline: as §1
The test system of another test is Avena fatua (AVEFA). The note with it: application rate 250 g/ha, 13 days after application, visual (100%=total damage; 0%=no damage); for pest or weed control at 250 g/ha: Avena fatua, 312 h, read-out: Post-emergence Herbicidal Activity (% Phytotoxicity) AVEFA. In outline: as §1

Each structure is given as a SMILES string.

The results in this text go back to US9808003B2, “Herbicidally active 2-(substituted-phenyl)-cyclopentane-1,3-dione compounds and derivatives thereof” (Syngenta Limited, priority 2013, dated 2017).

For the molecule `Cc1cc(C)c(C2C(=O)CC(CCNC(=O)c3nc(Br)ccc3F)C2=O)c(C)c1` (centres unmarked) [Compound A193], the pest or weed control at 250 g/ha in test [1] was found to be 90%; in the test with Lolium perenne (LOLPE) it was 100%; in test [2], 90%; in the test with Avena fatua (AVEFA), 90%.
In the case of `Cc1cc(C)c(C2C(=O)CC(CCNC(=O)c3ccc(OC(F)F)cn3)C2=O)c(C)c1` (centres unmarked) [Compound A188], the pest or weed control at 250 g/ha (in test [1]; with Lolium perenne (LOLPE); in test [2]; with Avena fatua (AVEFA)) was 100% in each case.
Take `Cc1cc(-n2cc(Cl)cn2)cc(C)c1C1C(=O)CC(CCNC(=O)c2cc(Cl)cc(Cl)n2)C1=O` (centres unmarked) [Compound A141]: the pest or weed control at 250 g/ha in test [1] was determined as 60%; in the test on Lolium perenne (LOLPE), 70%; in test [2] it was 100%; in the test with Avena fatua (AVEFA), 10%.
In the same order, the values of `Cc1cc(C)c(C2C(=O)CC(CCNC(=O)c3ccc(Cl)c(Cl)c3)C2=O)c(C)c1` (centres unmarked) [Compound A6] are 30%, 90%, 90% and 60%.
In the same order, the values of `Cc1cc(C)c(C2C(=O)CC(CCNC(=O)c3cccc(F)n3)C2=O)c(C)c1` (centres unmarked) [Compound A89A] are 100%, 100%, 100% and 100%.
In the same order, the values of `Cc1cc(C)c(C2C(=O)CC(CCNC(=O)c3cccs3)C2=O)c(C)c1` (centres unmarked) [Compound A5] are 50%, 70%, 60% and 30%.
Turning to `Cc1cc(C)c(C2C(=O)CC(CCNC(=O)c3ncccc3N)C2=O)c(C)c1` (centres unmarked) [Compound A41], the pest or weed control at 250 g/ha in test [1] was 70%; in the test on Lolium perenne (LOLPE) it was 70%; in test [2], 60%; in the test on Avena fatua (AVEFA) it was 70%.
Regarding `CCCCC(=O)OC1=C(c2c(C)cc(C)cc2C)C(=O)C(CCNC(=O)c2ccc(Br)cn2)C1` (centres unmarked) [Compound P12], the pest or weed control at 250 g/ha (in test [1]; in the test with Lolium perenne (LOLPE); in test [2]; in the test on Avena fatua (AVEFA)) was 100% each time.
As for `CCOC(=O)OC1=C(c2c(C)cc(C)cc2C)C(=O)C(CCNC(=O)c2ccc(Br)cn2)C1` (centres unmarked) [Compound P11], the pest or weed control at 250 g/ha (in test [1]; with Lolium perenne (LOLPE); in test [2]; in the test with Avena fatua (AVEFA)) was 100% throughout.
As for `Cc1cc(C)c(C2C(=O)CC(CCNC(=O)c3cncc(Cl)n3)C2=O)c(C)c1` (centres unmarked) [Compound A196], the pest or weed control at 250 g/ha in test [1] was determined as 80%; in the test with Lolium perenne (LOLPE), 90%; in test [2] it was 100%; in the test with Avena fatua (AVEFA) it was 90%.
`Cc1cc(-n2cc(Cl)cn2)cc(C)c1C1C(=O)CC(CCNC(=O)c2nc(Br)ccc2F)C1=O` (centres unmarked) [Compound A191]: the pest or weed control at 250 g/ha in test [1] is 100%; in the test with Lolium perenne (LOLPE), 90%; in test [2], 100%; in the test on Avena fatua (AVEFA) it was 100%.
As for `Cc1cc(C)c(C2C(=O)CC(CCNC(=O)c3cc4ccccc4n3C)C2=O)c(C)c1` (centres unmarked) [Compound A52], the pest or weed control at 250 g/ha amounted to 70% in test [1], 90% with Lolium perenne (LOLPE), 100% in test [2] and 70% in the test on Avena fatua (AVEFA).
As to `CCOCOC1=C(c2c(C)cc(C)cc2C)C(=O)C(CCNC(=O)c2ccc(Br)cn2)C1` (centres unmarked) [Compound P20], the pest or weed control at 250 g/ha (in test [1]; in the test on Lolium perenne (LOLPE); in test [2]; in the test with Avena fatua (AVEFA)) was 100% throughout.
As for `Cc1cc(C)c(C2C(=O)CC(CCNC(=O)c3cc(C)on3)C2=O)c(C)c1` (centres unmarked) [Compound A61], the pest or weed control at 250 g/ha in test [1] was found to be 90%; in the test on Lolium perenne (LOLPE), 100%; in test [2] it was 70%; in the test on Avena fatua (AVEFA), 60%.
On to `Cc1cc(C)c(C2C(=O)CC(CCNC(=O)c3nc(Cl)ccc3Br)C2=O)c(C)c1` (centres unmarked) [Compound A40], for which the pest or weed control at 250 g/ha (in test [1]; with Lolium perenne (LOLPE); in test [2]; in the test on Avena fatua (AVEFA)) was 100% in each case.
Turning to `Cc1cc(C)c(C2C(=O)CC(CCNC(=O)c3cscn3)C2=O)c(C)c1` (centres unmarked) [Compound A53], the pest or weed control at 250 g/ha came to 80% in test [1], 100% in the test on Lolium perenne (LOLPE), 100% in test [2] and 90% with Avena fatua (AVEFA).
Take `Cc1cc(-n2cc(Cl)cn2)cc(C)c1C1C(=O)CC(CCNC(=O)c2cccc(F)n2)C1=O` (centres unmarked) [Compound A135]: the pest or weed control at 250 g/ha amounted to 100% in test [1], 100% in the test with Lolium perenne (LOLPE), 100% in test [2] and 90% with Avena fatua (AVEFA).
Turning to `Cc1cc(C)c(C2C(=O)CC(CCNC(=O)c3cnccn3)C2=O)c(C)c1` (centres unmarked) [Compound A55], the pest or weed control at 250 g/ha came out at 80% in test [1], 90% in the test with Lolium perenne (LOLPE), 90% in test [2] and 60% in the test on Avena fatua (AVEFA).
In the case of `Cc1cc(C)c(C2C(=O)CC(CCNC(=O)c3ccc(C#N)cn3)C2=O)c(C)c1` (centres unmarked) [Compound A57A], the “Post-emergence Herbicidal Activity (% Phytotoxicity) ALOMY” value in test [1] is 100%. For the same molecule, the “Post-emergence Herbicidal Activity (% Phytotoxicity) LOLPE” value with Lolium perenne (LOLPE) was 90%. Further, in test [2], the “Post-emergence Herbicidal Activity (% Phytotoxicity) ECHCG” value is on record as 90%. Also, in the test with Avena fatua (AVEFA), the “Post-emergence Herbicidal Activity (% Phytotoxicity) AVEFA” value came out at 90%.
On to `CC#Cc1cc(C)c(C2C(=O)CC(CCNC(=O)c3ccccn3)C2=O)c(CC)c1` (centres unmarked) [Compound A84, N-[2-[3-(2-ethyl-6-methyl-4-prop-1-ynyl-phenyl)-2,4-dioxo-cyclopentyl]ethyl]pyridine-2-carboxamide], for which the pest or weed control at 250 g/ha (in test [1]; in the test on Lolium perenne (LOLPE); in test [2]; in the test on Avena fatua (AVEFA)) was 100% in each case.
For `Cc1cc(C)c(C2C(=O)CC(CCNC(=O)c3sc(Cl)nc3C(F)(F)F)C2=O)c(C)c1` (centres unmarked) [Compound A213], the pest or weed control at 250 g/ha in test [1] is 10%; with Lolium perenne (LOLPE), 60%; in test [2] it was 50%; in the test with Avena fatua (AVEFA), 10%.
On to `Cc1cc(C)c(C2C(=O)CC(CCNC(=O)c3nccc4ccccc34)C2=O)c(C)c1` (centres unmarked) [Compound A63], for which the pest or weed control at 250 g/ha was found to be 90% in test [1], 100% with Lolium perenne (LOLPE), 90% in test [2] and 90% with Avena fatua (AVEFA).
With `Cc1cc(C)c(C2C(=O)CC(CCNC(=O)c3nnsc3C)C2=O)c(C)c1` (centres unmarked) [Compound A164], the pest or weed control at 250 g/ha in test [1] came out at 90%; with Lolium perenne (LOLPE) it was 90%; in test [2], 100%; in the test on Avena fatua (AVEFA), 100%.
